From patent US20230399289A1, “ITACONIC ACID DERIVATIVES” (Sitryx Therapeutics Limited, priority 2020, published 2023) come the findings set out here.

Data set [1] concerns NRF2 (nuclear factor erythroid 2-related factor 2). Description: NRF2 +/−GSH activation assay (DiscoverX PathHunter NRF2 translocation kit, U2OS cells). The format is cell-based. The note with it: Homo sapiens; for Emax: U2OS, normalised to dimethyl fumarate high control; for EC50: U2OS PathHunter cells, 6 hours.
For data set [2], the system named is IL-1β cytokine output from THP-1 cells. In words: THP-1 AlphaLISA IL-1β cytokine assay. Type of data set: cell-based. The following applies: Homo sapiens, THP-1, differentiated THP-1 cells, LPS 24 hr then Nigericin 1 hour. Here is the method: Measuring Inhibitory Effects on IL-1β and IL-6 Cytokine Output from THP-1s
The cytokine inhibition profiles of compounds of formula (I) were determined in a differentiated THP-1 cell assay. All assays were performed in RPMI-1640 growth medium (Gibco), supplemented with 10% fetal bovine serum (FBS; Gibco), 1% penicillin-streptomycin and 1% sodium pyruvate unless specified otherwise. The IL-1β and IL-6 cytokine inhibition assays were each run in a background of differentiated THP-1 cells as described below. All reagents described were from Sigma-Aldrich unless specified otherwise. Compounds were prepared as 10 mM DMSO stocks.
THP-1 cells were expanded as a suspension up to 80% confluence in appropriate growth medium. Cells were harvested, suspended, and treated with an appropriate concentration of phorbol 12-myristate 13-acetate (PMA) over a 72 hr period (37° C./5% CO2).
Following 72 hrs of THP-1 cell incubation, cellular medium was removed and replaced with fresh growth media containing 1% of FBS. Working concentrations of compounds were prepared separately in 10% FBS treated growth medium and pre-incubated with the cells for 30 minutes (37° C./5% CO2). Following the 30 minute compound pre-incubation, THP-1s were treated with an appropriate concentration of LPS and the THP-1s were subsequently incubated for a 24 hr period (37° C./5% CO2). An appropriate final concentration of Nigericin was then dispensed into the THP-1 plates and incubated for 1 hour (37° C./5% CO2) before THP-1 supernatants were harvested and collected in separate polypropylene 96-well holding plates.
Reagents from each of the […] and IL-6 commercial kits (Perkin Elmer) were prepared and run according to the manufacturer's instructions. Subsequently, fluorescence signal detection in a microplate reader was measured (EnVision® Multilabel Reader, Perkin Elmer).
Percentage inhibition was calculated per cytokine by normalising the sample data to the high and low controls used within each plate (+/−LPS respectively). Percentage inhibition was then plotted against compound concentration and the 50% inhibitory concentration (IC50) was determined from the resultant concentration-response curve.

In data set [3] the test system is hepatocytes. In words: Hepatocyte stability assay, human. The format is in vitro ADME. The note with it: 10 μM compound, 0.5×10^6 cells/mL, 60 min. The source says:
(§1) Defrosted cryo-preserved hepatocytes (viability>70%) may be used to determine the metabolic stability of a compound via calculation of intrinsic clearance (Clint; a measure of the removal of a compound from the liver in the absence of blood flow and cell binding). Clearance data are particularly important for in vitro work as they can be used in combination with in vivo data to predict the half-life and oral bioavailability of a drug.
(§2) The metabolic stability in hepatocytes assay involves a time-dependent reaction using both positive and negative controls. The cells were pre-incubated at 37° C. and spiked with test compound (and positive control); samples were taken at pre-determined time intervals and analysed to monitor the change in concentration of the initial drug compound over 60 minutes. A buffer incubation reaction (with no hepatocytes present) acted as a negative control and two cocktail solutions, containing compounds with known high and low clearance values (verapamil/7-hydroxycoumarin and propranolol/diltiazem), acted as positive controls. • 1. The assay was run with a cell concentration of 0.5×10^6 cells/mL in Leibovitz buffer. • 2. All compounds and controls were run in duplicate. • 3. Compound concentration was 10 μM. • 4. All compounds and controls were incubated with both cells and buffer to show turnover was due to hepatic metabolism. • 5. All wells on the incubation plate had 326.7 μL of either cells or buffer added. • 6. Prior to assay, cell and buffer-only incubation plates were preincubated for 10 mins at 37° C. • 7. The assay was initiated by adding compounds, 3.3 μL of 1 mM in 10% DMSO-90% Buffer; final DMSO concentration is 0.1%. • 8. Samples were taken at regular timepoints (0, 5, 10, 20, 40, 60 min) until 60 mins. • 9. Sample volume was 40 μL and was added to 160 μL of crash solvent (acetonitrile with internal standard) and stored on ice. • 10. At the end of the assay, the crash plates were centrifuged at 3500 rpm for 20 mins at 4° C. • 11. 80 μL of clear supernatant was removed and mixed with 80 μL of deionised water before being analysed by LC-MS/MS.
(§3) Raw LC-MS/MS data was exported to, and analysed in, Microsoft Excel for determination of intrinsic clearance. The percentage remaining of a compound was monitored using the peak area of the initial concentration as 100%. Intrinsic clearance and half-life values were calculated using a graph of the natural log of percentage remaining versus the time of reaction in minutes. Half-life (min) and intrinsic clearance (Clint in μL min^−1 10^−6 cells) values were calculated using the gradient of the graph (the elimination rate constant, k) and Equations 1 and 2.

The nature of data set [4]: Hepatocyte stability assay, human. The following applies: cryopreserved hepatocytes, 10 μM compound, 0.5×10^6 cells/mL, 60 min, read-out: T½. Type of data set: in vitro ADME.
Description: as §1, §2, §3

Data set [5] concerns hepatocytes. In words: Hepatocyte stability assay, mouse. Type of data set: in vitro ADME. The note with it: 10 μM compound, 0.5×10^6 cells/mL, 60 min.
Description: as §1, §2, §3

Data set [6] is described as follows: Hepatocyte stability assay, mouse. Type of data set: in vitro ADME. The note with it: cryopreserved hepatocytes, 10 μM compound, 0.5×10^6 cells/mL, 60 min, read-out: T½.
Description: as §1, §2, §3

[7] abbreviates: +GSH, 30 minute compound-GSH pre-incubation.

For orientation: Emax means the size of the effect at its maximum, as opposed to the concentration needed. Broadly, the EC50 is the concentration that produces a half-maximal response. Read a high EC50 as lower potency in that assay. The term IC50 denotes the concentration that gives 50% inhibition. With `C=C(CC(=O)OC1(c2ccc(OC(F)(F)F)cc2Cl)CCC1)C(=O)OCC(=O)O` [Example 6, 2-((4-(1-(2-chloro-4-(trifluoromethoxy)phenyl)cyclobutoxy)-2-methylene-4-oxobutanoyl)oxy)acetic acid], the Emax was determined as 187% in data set [1] (+GSH) and 219% in data set [1] (−GSH). In addition, the values for the EC50 in data set [1] (setting [7]) and in data set [1] (−GSH) were 15.4 µM and 11.9 µM, respectively. This compound registered an IC50 in data set [2] of 12.7 µM. The CIint is given as 18 μL min^−1 10^−6 cells in the data set on hepatocytes [3] and >460 μL min^−1 10^−6 cells in the data set on hepatocytes [5]. Besides, the half-life at 10 μM in data set [4] is 1.42 h; in data set [6] it was < 0.05 h.
On to `C=C(CC(=O)OC1(c2ccc(OC(F)(F)F)cc2)CCC1)C(=O)OCC(=O)O` [Example 9, 2-((2-methylene-4-oxo-4-(1-(4-(trifluoromethoxy)phenyl)cyclobutoxy)butanoyl)oxy)acetic acid], for which the maximal effect (Emax) in data set [1] (+GSH) came to 182%; in data set [1] (−GSH) it was 210%. Further, the half-maximal effective concentration (EC50) in data set [1] (setting [7]) is 7.3 µM; in data set [1] (−GSH), 5.1 µM. The compound also yielded an IC50 in data set [2] of 12.1 µM. In addition, the CIint came out at 6 μL min^−1 10^−6 cells in the data set with hepatocytes [3] and 66 μL min^−1 10^−6 cells in the data set on hepatocytes [5]. In addition, the half-life at 10 μM in data set [4] is 4.18 h; in data set [6], 0.483 h.
For `C=C(CC(=O)OC1(c2ccc(Cl)cc2Cl)CCC1)C(=O)OCC(=O)O` [Example 10, 2-((4-(1-(2,4-dichlorophenyl)cyclobutoxy)-2-methylene-4-oxobutanoyl)oxy)acetic acid], the Emax in data set [1] (+GSH) amounted to 175%; in data set [1] (−GSH), 236%. In addition, the EC50 in data set [1] (setting [7]) is 11.6 µM; in data set [1] (−GSH), 8.3 µM. In data set [2], this compound came in with a 50% inhibitory concentration (IC50) of 11.3 µM. For the same compound, the CIint in the data set on hepatocytes [3] is reported as 14 μL min^−1 10^−6 cells; in the data set on hepatocytes [5] it was 187 μL min^−1 10^−6 cells. For the same compound, the half-life at 10 μM worked out at 1.78 h in data set [4] and 0.133 h in data set [6].
As for `C=C(CC(=O)OC1(c2ccc(C(F)(F)F)cc2Cl)CCC1)C(=O)OCC(=O)O` [Example 11, 2-((4-(1-(2-chloro-4-(trifluoromethyl)phenyl)cyclobutoxy)-2-methylene-4-oxobutanoyl)oxy)acetic acid], the Emax in data set [1] (+GSH) was 160%; in data set [1] (−GSH), 214%. Moreover, the EC50 in data set [1] (setting [7]) amounted to 5.1 µM; in data set [1] (−GSH), 3 µM. In data set [2], this compound displayed an IC50 of 9 µM. The CIint with hepatocytes [3] is listed as 10 μL min^−1 10^−6 cells; in the data set with hepatocytes [5] it was 100 μL min^−1 10^−6 cells. The half-life at 10 μM in data set [4] was 2.53 h; in data set [6], 0.25 h.
In turn, `C=C(CC(=O)OC1(c2cc(Cl)c(OC)c(Cl)c2)CCC1)C(=O)OCC(=O)O` [Example 18, 2-((4-(1-(3,5-dichloro-4-methoxyphenyl)cyclobutoxy)-2-methylene-4-oxobutanoyl)oxy)acetic acid] registered an IC50 in data set [2] of 9.9 µM. Further, the CIint in the data set with hepatocytes [3] is recorded as 13 μL min^−1 10^−6 cells; with hepatocytes [5], 58 μL min^−1 10^−6 cells. In addition, the half-life at 10 μM was 1.82 h in data set [4] and 0.433 h in data set [6].
The matching figures for `C=C(CC(=O)OC1(c2cc(F)c(C(F)(F)F)c(F)c2)CCC1)C(=O)OCC(=O)O` [Example 19, 2-((4-(1-(3,5-difluoro-4-(trifluoromethyl)phenyl)cyclobutoxy)-2-methylene-4-oxobutanoyl)oxy)acetic acid]: 4.4 µM, 8 μL min^−1 10^−6 cells, 66 μL min^−1 10^−6 cells, 3.12 h and 0.383 h.
In turn, `C=C(CC(=O)OC1(c2ccc(C)c(Cl)c2)CCC1)C(=O)OCC(=O)O` [Example 20, 2-((4-(1-(3-chloro-4-methylphenyl)cyclobutoxy)-2-methylene-4-oxobutanoyl)oxy)acetic acid] registered an IC50 in data set [2] of 8.7 µM. Moreover, the CIint in the data set on hepatocytes [3] is recorded as 15 μL min^−1 10^−6 cells; with hepatocytes [5], 77 μL min^−1 10^−6 cells. Moreover, the half-life at 10 μM in data set [4] was determined as 1.4 h; in data set [6] it was 0.433 h.
